From patent US20250064941A1, “SIGLEC LIGANDS, CONJUGATES, AND METHODS OF USE THEREOF” (Osprey Biopharmaceuticals, Inc., priority 2023, published 2025)

Legend:
[1] = target: cynomolgus Siglec-2/CD22 (Macaca fascicularis, UniProt A0A2K5WCZ6); experiment: biochemical; type: binding; conditions: SPR, steady-state analysis; read-out: Affinity cyno CD22
Outline: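 Compound binding measured by steady-state SPR analysis, 120 s dissociation, in HEPES-NaCl-Tween buffer pH 7.5 containing 1% DMSO, DMSO solvent-corrected. Surface: cyno CD22, sialic acids first stripped by SialoExo for 4 h at 37° C., then amine-coupled onto CM5.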

[2] = target: T1, mouse Siglec-2-Fc-Avi (CD22) (Mus musculus, UniProt P35329); experiment: SPR binding affinity to mouse CD22; conditions: steady-state analysis
T1 construct: made in house
T1 sequence (P35329 22-708 limits assumed): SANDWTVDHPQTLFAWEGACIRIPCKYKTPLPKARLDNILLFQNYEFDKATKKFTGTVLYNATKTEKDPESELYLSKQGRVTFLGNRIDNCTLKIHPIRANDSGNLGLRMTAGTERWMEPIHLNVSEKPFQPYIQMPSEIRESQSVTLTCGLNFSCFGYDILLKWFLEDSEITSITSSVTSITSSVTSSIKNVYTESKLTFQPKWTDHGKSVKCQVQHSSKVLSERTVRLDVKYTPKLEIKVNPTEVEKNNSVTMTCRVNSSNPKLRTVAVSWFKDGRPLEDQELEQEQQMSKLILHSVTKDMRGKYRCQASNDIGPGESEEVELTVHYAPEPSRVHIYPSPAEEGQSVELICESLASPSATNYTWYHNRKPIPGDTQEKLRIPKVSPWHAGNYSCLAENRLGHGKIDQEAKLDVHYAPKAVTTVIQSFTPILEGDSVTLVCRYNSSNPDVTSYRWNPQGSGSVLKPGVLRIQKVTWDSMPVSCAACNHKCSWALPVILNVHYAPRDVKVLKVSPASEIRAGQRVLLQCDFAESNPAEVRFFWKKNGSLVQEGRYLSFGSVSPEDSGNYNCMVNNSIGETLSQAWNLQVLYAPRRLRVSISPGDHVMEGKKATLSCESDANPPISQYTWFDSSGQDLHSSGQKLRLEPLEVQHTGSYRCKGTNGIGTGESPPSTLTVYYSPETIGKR
Outline: (§1)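 SialoExo pretreatment, 4 h 37° C.; biotinylated CD22 on SA chip, Biacore 8K. Buffer 10 mM HEPES, 150 mM NaCl, 0.05% Tween-20, pH 7.5, 1% DMSO. Dissociation 120 s; solvent-corrected; steady-state KD.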

[3] = target: T2, human Siglec-2/CD22 protein (Homo sapiens, UniProt P20273); experiment: SPR binding affinity to human CD22; conditions: steady-state analysis
T2 construct: purchased Acro Biosystems SI2-H82E3
T2 sequence (P20273 20-847): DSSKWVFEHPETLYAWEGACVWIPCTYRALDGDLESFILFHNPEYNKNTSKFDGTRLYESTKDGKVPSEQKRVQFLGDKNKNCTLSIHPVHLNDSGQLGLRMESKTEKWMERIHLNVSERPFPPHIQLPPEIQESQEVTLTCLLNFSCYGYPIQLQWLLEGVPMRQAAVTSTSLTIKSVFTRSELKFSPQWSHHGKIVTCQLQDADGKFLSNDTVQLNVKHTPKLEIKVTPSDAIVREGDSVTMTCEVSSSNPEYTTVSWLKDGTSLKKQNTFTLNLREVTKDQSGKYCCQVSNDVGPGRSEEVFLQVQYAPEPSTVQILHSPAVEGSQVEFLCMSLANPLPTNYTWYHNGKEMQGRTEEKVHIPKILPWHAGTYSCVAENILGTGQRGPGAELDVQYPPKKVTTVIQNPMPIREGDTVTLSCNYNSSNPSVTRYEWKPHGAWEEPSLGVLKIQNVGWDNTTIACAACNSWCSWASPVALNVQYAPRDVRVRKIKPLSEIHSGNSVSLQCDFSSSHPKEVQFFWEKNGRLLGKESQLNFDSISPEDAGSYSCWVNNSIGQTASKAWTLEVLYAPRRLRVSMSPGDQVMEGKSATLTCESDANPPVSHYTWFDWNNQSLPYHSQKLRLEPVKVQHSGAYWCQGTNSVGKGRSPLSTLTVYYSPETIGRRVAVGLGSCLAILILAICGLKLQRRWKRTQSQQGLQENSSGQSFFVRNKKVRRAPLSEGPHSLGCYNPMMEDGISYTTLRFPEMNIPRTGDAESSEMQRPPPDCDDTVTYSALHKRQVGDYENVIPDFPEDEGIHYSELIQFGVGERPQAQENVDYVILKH
Outline: as §1

cynomolgus Siglec-2/CD22, sequence (A0A2K5WCZ6 entry or part of it): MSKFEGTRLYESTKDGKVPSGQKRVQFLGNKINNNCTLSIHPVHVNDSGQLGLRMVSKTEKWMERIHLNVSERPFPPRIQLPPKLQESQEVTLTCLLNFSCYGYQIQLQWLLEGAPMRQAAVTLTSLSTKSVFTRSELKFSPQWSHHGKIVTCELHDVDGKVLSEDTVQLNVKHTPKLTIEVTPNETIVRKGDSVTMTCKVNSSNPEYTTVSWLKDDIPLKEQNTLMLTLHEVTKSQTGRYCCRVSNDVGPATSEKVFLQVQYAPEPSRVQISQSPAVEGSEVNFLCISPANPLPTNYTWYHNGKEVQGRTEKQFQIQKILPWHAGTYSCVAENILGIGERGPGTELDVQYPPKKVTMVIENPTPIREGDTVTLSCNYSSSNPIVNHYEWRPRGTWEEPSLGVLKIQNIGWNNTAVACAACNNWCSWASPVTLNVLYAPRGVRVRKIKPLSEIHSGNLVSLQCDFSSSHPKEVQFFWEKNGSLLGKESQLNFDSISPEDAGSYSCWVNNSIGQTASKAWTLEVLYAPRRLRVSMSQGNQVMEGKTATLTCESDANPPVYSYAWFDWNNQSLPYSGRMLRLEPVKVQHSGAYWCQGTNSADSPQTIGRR

SMILES: C#CCOCCCCCCO[C@]1(C(=O)O)C[C@H](O)[C@@H](NC(=O)CO)[C@H]([C@H](O)[C@H](O)CNC(=O)Cc2ccc(C(F)(F)F)cc2)O1 [Compound 158, (2R,4S,5R,6R)-6-((1R,2R)-1,2-dihydroxy-3-(2-(4-(trifluoromethyl)phenyl)acetamido)propyl)-4-hydroxy-5-(2-hydroxyacetamido)-2-((6-(prop-2-yn-1-yloxy)hexyl)oxy)tetrahydro-2H-pyran-2-carboxylic acid]
- Kd [1]: 1 to 10 µM
- Kd [2]: 1 to 10 µM
- Kd [3]: < 1 µM

SMILES: C#CCOCCCCCCO[C@]1(C(=O)O)C[C@H](O)[C@@H](NC(=O)CO)[C@H]([C@H](O)[C@H](O)CNC(=O)Cc2ccc(C(C)(C)C)cc2)O1 [Compound 160, (2R,4S,5R,6R)-6-((1R,2R)-3-(2-(4-(tert-butyl)phenyl)acetamido)-1,2-dihydroxypropyl)-4-hydroxy-5-(2-hydroxyacetamido)-2-((6-(prop-2-yn-1-yloxy)hexyl)oxy)tetrahydro-2H-pyran-2-carboxylic acid]
- Kd [1]: < 1 µM
- Kd [2]: 1 to 10 µM
- Kd [3]: < 1 µM

SMILES: C#CCOCCCCCCO[C@]1(C(=O)O)C[C@H](O)[C@@H](NC(=O)CO)[C@H]([C@H](O)[C@H](O)CNC(=O)Cc2ccc(C3CC3)cc2)O1 [Compound 161, (2R,4S,5R,6R)-6-((1R,2R)-3-(2-(4-cyclopropylphenyl)acetamido)-1,2-dihydroxypropyl)-4-hydroxy-5-(2-hydroxyacetamido)-2-((6-(prop-2-yn-1-yloxy)hexyl)oxy)tetrahydro-2H-pyran-2-carboxylic acid]
- Kd [1]: < 1 µM
- Kd [2]: < 1 µM
- Kd [3]: < 1 µM

SMILES: C#CCOCCCCCCO[C@]1(C(=O)O)C[C@H](O)[C@@H](NC(=O)CO)[C@H]([C@H](O)[C@H](O)CNC(=O)Cc2ccc(C#N)cc2)O1 [Compound 162, (2R,4S,5R,6R)-6-((1R,2R)-3-(2-(4-cyanophenyl)acetamido)-1,2-dihydroxypropyl)-4-hydroxy-5-(2-hydroxyacetamido)-2-((6-(prop-2-yn-1-yloxy)hexyl)oxy)tetrahydro-2H-pyran-2-carboxylic acid]
- Kd [1]: < 1 µM
- Kd [2]: 1 to 10 µM
- Kd [3]: 1 to 10 µM

SMILES: C#CCCOc1ccc(CO[C@]2(C(=O)O)C[C@H](O)[C@@H](NC(=O)CO)[C@H]([C@H](O)[C@H](O)CNC(=O)Cc3ccccc3NC(C)=O)O2)cc1 [Compound 163, (2R,4S,5R,6R)-6-((1R,2R)-3-(2-(2-acetamidophenyl)acetamido)-1,2-dihydroxypropyl)-2-((4-(but-3-yn-1-yloxy)benzyl)oxy)-4-hydroxy-5-(2-hydroxyacetamido)tetrahydro-2H-pyran-2-carboxylic acid]
- Kd [1]: 1 to 10 µM
- Kd [2]: 1 to 10 µM
- Kd [3]: 1 to 10 µM

SMILES: C#CCCOc1ccc(CO[C@]2(C(=O)O)C[C@H](O)[C@@H](NC(=O)CO)[C@H]([C@H](O)[C@H](O)CNC(=O)Cc3cccc(NC(C)=O)c3)O2)cc1 [Compound 164, (2R,4S,5R,6R)-6-((1R,2R)-3-(2-(3-acetamidophenyl)acetamido)-1,2-dihydroxypropyl)-2-((4-(but-3-yn-1-yloxy)benzyl)oxy)-4-hydroxy-5-(2-hydroxyacetamido)tetrahydro-2H-pyran-2-carboxylic acid]
- Kd [1]: 1 to 10 µM
- Kd [2]: 1 to 10 µM
- Kd [3]: 1 to 10 µM

SMILES: C#CCOc1ccc(CO[C@]2(C(=O)O)C[C@H](O)[C@@H](NC(=O)CO)[C@H]([C@H](O)[C@H](O)CNC(=O)Cc3ccccc3F)O2)cc1 [Compound 165, (2R,4S,5R,6R)-6-((1R,2R)-3-(2-(2-fluorophenyl)acetamido)-1,2-dihydroxypropyl)-4-hydroxy-5-(2-hydroxyacetamido)-2-((4-(prop-2-yn-1-yloxy)benzyl)oxy)tetrahydro-2H-pyran-2-carboxylic acid]
- Kd [1]: 1 to 10 µM
- Kd [2]: 1 to 10 µM
- Kd [3]: < 1 µM

SMILES: C#CCOc1ccc(CO[C@]2(C(=O)O)C[C@H](O)[C@@H](NC(=O)CO)[C@H]([C@H](O)[C@H](O)CNC(=O)Cc3ccc(F)cc3)O2)cc1 [Compound 166, (2R,4S,5R,6R)-6-((1R,2R)-3-(2-(4-fluorophenyl)acetamido)-1,2-dihydroxypropyl)-4-hydroxy-5-(2-hydroxyacetamido)-2-((4-(prop-2-yn-1-yloxy)benzyl)oxy)tetrahydro-2H-pyran-2-carboxylic acid]
- Kd [1]: 1 to 10 µM
- Kd [2]: 1 to 10 µM
- Kd [3]: < 1 µM

SMILES: C#CCOc1ccc(CO[C@]2(C(=O)O)C[C@H](O)[C@@H](NC(=O)CO)[C@H]([C@H](O)[C@H](O)CNC(=O)Cc3cccc(F)c3)O2)cc1 [Compound 167, (2R,4S,5R,6R)-6-((1R,2R)-3-(2-(3-fluorophenyl)acetamido)-1,2-dihydroxypropyl)-4-hydroxy-5-(2-hydroxyacetamido)-2-((4-(prop-2-yn-1-yloxy)benzyl)oxy)tetrahydro-2H-pyran-2-carboxylic acid]
- Kd [1]: 1 to 10 µM
- Kd [2]: 1 to 10 µM
- Kd [3]: < 1 µM

SMILES: C#CCCOc1ccc(CO[C@]2(C(=O)O)C[C@H](O)[C@@H](NC(=O)CO)[C@H]([C@H](O)[C@H](O)CNC(=O)Cc3ccc(NC(C)=O)cc3)O2)cc1 [Compound 168, (2R,4S,5R,6R)-6-((1R,2R)-3-(2-(4-acetamidophenyl)acetamido)-1,2-dihydroxypropyl)-2-((4-(but-3-yn-1-yloxy)benzyl)oxy)-4-hydroxy-5-(2-hydroxyacetamido)tetrahydro-2H-pyran-2-carboxylic acid]
- Kd [1]: 1 to 10 µM
- Kd [2]: 1 to 10 µM
- Kd [3]: 1 to 10 µM

SMILES: C#CCCOc1ccc(CO[C@]2(C(=O)O)C[C@H](O)[C@@H](NC(=O)CO)[C@H]([C@H](O)[C@H](O)CNC(=O)C(C)(O)c3ccccc3)O2)cc1 (stereo partly drawn) [Compound 169, (2R,4S,5R,6R)-2-((4-(but-3-yn-1-yloxy)benzyl)oxy)-6-((1R,2R)-1,2-dihydroxy-3-(2-hydroxy-2-phenylpropanamido)propyl)-4-hydroxy-5-(2-hydroxyacetamido)tetrahydro-2H-pyran-2-carboxylic acid]
- Kd [1]: 1 to 10 µM
- Kd [2]: > 10 µM
- Kd [3]: 1 to 10 µM

SMILES: C#CCCOc1ccc(CO[C@]2(C(=O)O)C[C@H](O)[C@@H](NC(=O)CO)[C@H]([C@H](O)[C@H](O)CNC(=O)C3(c4ccc(C(F)(F)F)cc4)CCOCC3)O2)cc1 [Compound 170, (2R,4S,5R,6R)-2-((4-(but-3-yn-1-yloxy)benzyl)oxy)-6-((1R,2R)-1,2-dihydroxy-3-(4-(4-(trifluoromethyl)phenyl)tetrahydro-2H-pyran-4-carboxamido)propyl)-4-hydroxy-5-(2-hydroxyacetamido)tetrahydro-2H-pyran-2-carboxylic acid]
- Kd [1]: 1 to 10 µM
- Kd [2]: 1 to 10 µM
- Kd [3]: 1 to 10 µM

SMILES: C#CCCOc1ccc(CO[C@]2(C(=O)O)C[C@H](O)[C@@H](NC(=O)CO)[C@H]([C@H](O)[C@H](O)CNC(=O)C(OC)(c3ccccc3)C(F)(F)F)O2)cc1 (stereo partly drawn) [Compound 171, (2R,4S,5R,6R)-2-((4-(but-3-yn-1-yloxy)benzyl)oxy)-6-((1R,2R)-1,2-dihydroxy-3-(3,3,3-trifluoro-2-methoxy-2-phenylpropanamido)propyl)-4-hydroxy-5-(2-hydroxyacetamido)tetrahydro-2H-pyran-2-carboxylic acid]
- Kd [1]: 1 to 10 µM
- Kd [2]: 1 to 10 µM
- Kd [3]: 1 to 10 µM
